Source: patent US20220265759A1, “COMPOSITION AND METHOD FOR PROMOTING WOUND HEALING” (THE BOARD OF TRUSTEES OF THE UNIVERSITY OF ILLIOIS, priority 2019, published 2022)
Entries after “also recorded” stand apart in the source; their conditions may differ. Peptide text beside a SMILES is read from it. * marks the point of attachment. Myristoyl = CCCCCCCCCCCCCC(=O)*

Legend:
CCR10-eNOS interaction = target: T1, CCR10-eNOS interaction (Mus musculus, UniProt Q9JL21); assay: Co-IP of CCR10-eNOS interaction in db/db mouse wounds; assay type: in vivo, db/db mice; conditions: day 12, vs Ctl-P
T1 construct: cells or mouse wounds were collected after treatment, and lysed in 2% ODG in Tris buffer; tissue Jackson Laboratory; host or cells: dorsal skin wounds of WT C57BL/6 or db/db mice
T1 sequence (Q9JL21 1-362): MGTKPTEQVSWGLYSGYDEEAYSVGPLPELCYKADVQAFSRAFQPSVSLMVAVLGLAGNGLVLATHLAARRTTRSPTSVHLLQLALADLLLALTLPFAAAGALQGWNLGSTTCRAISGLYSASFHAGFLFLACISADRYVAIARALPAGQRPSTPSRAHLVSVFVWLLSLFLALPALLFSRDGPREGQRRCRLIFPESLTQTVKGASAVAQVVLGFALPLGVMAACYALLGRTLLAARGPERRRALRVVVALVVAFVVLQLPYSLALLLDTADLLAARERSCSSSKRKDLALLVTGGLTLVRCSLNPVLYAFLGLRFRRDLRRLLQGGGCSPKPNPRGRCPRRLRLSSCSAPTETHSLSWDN
Procedure: Co-IP Experiments, cells or mouse wounds were collected after treatment, and lysed in 2% ODG in Tris buffer. The homogenates were further prepared for Co-IP experiments as described in the art (Chen, et al. (2018) Mol. Biol. Cell 29(10):1190-1202; Chen, et al. (2020) FASEB J. 34(4):5838-5850; Chen, et al. (2015) Ann. Rheum. Dis. 74:1898-1906).
(§1) Two 8 mm full thickness excisional wounds were made on the dorsal skin of diabetic db/db mice and then 50 μl of 50 μM Myr-CBD7 peptide was topically applied. […] Reduced CCR10-eNOS interaction was also observed in the mouse wounds following treatment with Myr-CBD7 peptide as determined by Co-IP (FIG. 6).

[1] = test system: CD31, CCR10, CCL28, IL-6, IL-4, HGF mRNA; assay: Real-time RT-PCR of mRNA levels in WT mouse dermal wounds; assay type: in vivo, WT C57BL/6 mice
Procedure: Real-Time RT-PCR. Total cellular RNA from mouse skin wounds was extracted using nucleic acid extraction reagent sold under the tradename TRIZOL®. mRNA expression of different genes was examined by real-time RT-PCR that employed a SYBR Green PCR mix. Relative gene expression was determined by the ΔΔCt method based on GAPDH levels as described previously (Chen, et al. (2013) J. Immunol. 190:5256-5266).

eNOS = assay: Immunoblot of eNOS phosphorylation in endothelial cells; assay type: cell-based, human; conditions: in presence of peptide
Procedure: Immunoblot and Co-Immunoprecipitation (Co-IP). After serum starvation, inhibitors were added 45 minutes prior to stimulation for indicated times at 37° C., and cells were then collected and lysed for western blot analysis. After probing for p-eNOS (Ser1177), p-p85 (Tyr458), p-Src (Tyr 416), and p-ERK (T202/Y204), the same blots were stripped and re-probed for total proteins mentioned above. For detection of CCL28-induced protein levels of β-catenin and Bcl-2, near-confluent endothelial cells were incubated with 500 ng/ml CCL28 for 24 hours in EGM-2 medium containing 1% FBS.

wound blood perfusion = assay: Blood perfusion by laser speckle contrast analysis (LASCA) in db/db mouse wounds; assay type: in vivo, db/db mice; conditions: day 7, 50 μM, vs control peptide
Procedure: Blood Perfusion Measurement. Immediately after creation of dorsal skin wounds on db/db mice using an 8 mm punch, 50 μl of 50 μM Myr-scrambled control or Myr-CBD7 peptide in F-127 gel sold under the tradename PLURONIC® was applied topically to the wounds on db/db mice. Blood perfusion was analyzed based on motion detected below the surface of the wound using a near infrared laser based PeriCam PSI laser speckle contrast analysis system (LASCA) as described previously (Elgharably, et al. (2013) Wound Repair Regen. 21(3):473-481; Das, et al. (2016) J. Immunol. 196(12):5089-5100).
To further investigate if Myr-CBD7 promotes healing of dorsal skin wounds on db/db mice by stimulating angiogenesis, blood perfusion as detected by laser speckle contrast analysis (LASCA), was monitored.

CD31 = assay: Microvessel density (CD31 staining) in db/db mouse wounds; assay type: in vivo, db/db mice; conditions: day 12
From the text: CD31 Staining in Mouse Wound Tissue. Formalin-fixed mouse skin samples were processed on ASP300 S automated tissue processor (Leica Biosystems, Buffalo Grove, Ill.) using a standard overnight processing protocol and embedded into paraffin blocks. Tissue was sectioned at 5 μm and stained with rabbit anti-CD31 antibody. Sections were deparaffinized, rehydrated, and stained on BOND″ RX automated stainer (Leica Biosystems, Buffalo Grove, Ill.) using a preset protocol. In brief, sections were subjected to EDTA-based antigen retrieval with BOND™ ER2 solution (Leica Biosystems, Buffalo Grove, Ill.) for 20 minutes at 100° C. Endogenous peroxidase activity and non-specific binding was blocked by treating samples with peroxidase block and protein block with Background Sniper (Biocare Medical, Pacheco, Calif.) for 15 minutes and 30 minutes at room temperature, respectively. Sections were then incubated with the primary antibody diluted at 1:200 for 30 minutes at room temperature. BOND™ Polymer Refine Detection kit (Leica Biosystems, Buffalo Grove, Ill.) was used for detection. […]
as §1

CCCCCCCCCCCCCC(=O)N[C@@H](CCCCN)C(=O)N[C@H](C(=O)N[C@@H](CO)C(=O)N[C@@H](C)C(=O)N[C@@H](CO)C(=O)N[C@@H](CC(C)C)C(=O)N[C@@H](CCSC)C(=O)O)[C@@H](C)CC [Myr-CBD7, myr-KISASLM] (Myristoyl-KISASLM-OH)
CCR10-eNOS interaction in wounds (Co-IP) (CCR10-eNOS interaction): Reduced; also recorded: disrupted
CCL28 mRNA level ([1]; wounds day 7): reduction
CCR10 mRNA level ([1]; wounds day 7): did not change
CD31 mRNA level ([1]; wounds day 7): elevated
IL-4 mRNA level ([1]; wounds day 7): enhancing
IL-6 mRNA level ([1]; wounds day 7): reduction
increase of hepatocyte growth factor (HGF) mRNA level ([1]; wounds day 7, non-significant): 35%
eNOS phosphorylation (Ser1177) (eNOS): significantly enhanced
blood perfusion (wound blood perfusion): significantly increased
microvessel density (CD31 staining) (CD31): enhanced
